Test [1] concerns Human-derived histiocyte lymphoma (U937/CCR2). The test can be described thus: Leukocyte migration inhibitory activity (MCP-1 induced migration, CHEMOTAXICELL). It counts as cell-based. As to conditions: Homo sapiens, U-937, 1 h, U937/CCR2, MCP-1, 1 hr, read-out: Migration inhibition (%) ± SEM; for inhibition at 0.3 µM: test compound 0.3 μM; for inhibition at 1 µM: test compound 1 μM. Here is the method:
Human-derived histiocyte lymphoma (U937/CCR2), in which mouse-derived CCR2 had been highly expressed, was suspended in a 0.1% BSA-containing RPMI 1640 medium, to which a test compound had been added (5×10^6/ml), and the suspension was incubated for 20 min. A chemical solution (500 μl) (0.1% BSA-containing RPMI 1640 medium DMSO 1%), to which an MCP-1 ligand (1 μM) and the test compound had been added, was added to a 24-well plate. CHEMOTAXICELL was put thereon, and 200 μl of the cell suspension was added to the top layer, followed by migration under 5% carbon dioxide at 37° C. for one hr. The number of cells, which had migrated to the lower chamber, was counted with a particle count analyzer (CDA-500, SYSMEX CORPORATION), and the percentage migration inhibition was calculated by the following equation; Migration inhibition (%)={1−(number of migrated cells in the presence of test compound/number of migrated cells in the absence of test compound)}×100

In test [2] the test system is spontaneously hypertensive male rats (SHR). Description: Antihypertensive activity in spontaneously hypertensive rats. The conditions noted are these: Rattus norvegicus, po, 30 mg/kg oral, mean ± SEM of 3 to 4 SHRs, read-out: Blood pressure depression, %. The test is classed as in vivo. Here is the method: This test was carried out as follows. A test compound was dissolved in purified water, or alternatively the test compound was suspended in a 5% aqueous sodium carboxymethylcellulose solution. The solution or the suspension was forcibly administered into the gaster of SHR through an oral probe. The systolic pressure of SHR was measured with a bloodless sphygmometer (BP-98A, Softron Co.) immediately before the administration of the test compound and 3 to 4 hr after the administration of the test compound or 6 to 7 hr after the administration of the test compound. The percentage of blood pressure depression was calculated by the following equation: Antihypertensive activity (%)={(blood pressure before administration of test compound−blood pressure after administration of test compound)/blood pressure before administration of test compound}×100
Each compound was administered at 30 mg/kg, and the antihypertensive activity (%) was expressed in terms of the mean value of 3 to 4 SHRs and SEM (standard error of the mean).
For data with *, the blood pressure was measured 6 to 7 hr after the administration of the test compound, and, for data with no marks, the blood pressure was measured 3 to 4 hr after the administration of the test compound.

The target of test [3] is Rho kinase (fused protein of bovine Rho kinase catalyst region and glutathione S-transferase) (Bos taurus, UniProt Q28021). Description: Rho kinase inhibitory activity (phosphorylation of S6 231–239 substrate, γ32P-ATP). It counts as biochemical. The conditions noted are these: concentration inhibiting substrate phosphorylation by 50%. As to the method:
This permits the substrate to be labeled with the radioisotope.
Thereafter, the substrate was adsorbed to a filter paper. ATP was washed away with a phosphoric acid solution, and the amount of the phosphorylated substrate was then measured with a liquid scintillation counter.

For test [4], the system named is anti-GBM nephritis model WKY rats. The test can be described thus: Albuminuria amelioration activity for anti-GBM nephritis model using WKY rats. The conditions noted are these: 24 hr urine, control group 840.4 ± 82.2. The test is classed as in vivo, rat. As to the method: Anti-GBM antibody produced by immunizing domestic rabbits with a rat-derived GBM fraction was caudointravenously administered to WKY male rats of 9 weeks old to induce nephritis. […] During 24 hr from two weeks after the administration of the antibody, urine was collected, and the protein level of urine was measured to observe albuminuria amelioration activity.

Test [5] relates to anti-GBM nephritis model S.D. rats. The test can be described thus: Albuminuria amelioration activity for anti-GBM nephritis model using S.D. rats. It counts as in vivo, rat. The conditions noted are these: oral 30 mg/kg twice daily, urine 0-24 hr after antibody, control group 794.2 ± 113.2. As to the method: Anti-GBM antibody produced by immunizing domestic rabbits with a rat-derived GBM fraction was caudointravenously administered to S.D. male rats of 8 weeks old to induce nephritis. Immediately after the administration of the antibody and six hr after the administration of the antibody, the compound of Example 300 was orally administered at 30 mg/kg. Urine was collected in a period between immediately after the administration of the antibody and 24 hr after the administration of the antibody, and the protein level of urine was measured to observe albuminuria amelioration activity.

The mark [6] stands for this setting: systolic pressure 6 to 7 hr after administration (data with *).
Where [7] appears, read: systolic pressure 3 to 4 hr after administration.

Like-named read-outs stand apart in the source and are kept apart here.

Sequence of Rho kinase (fused protein of bovine Rho kinase catalyst region and glutathione S-transferase) (Q28021 92-354 limits assumed): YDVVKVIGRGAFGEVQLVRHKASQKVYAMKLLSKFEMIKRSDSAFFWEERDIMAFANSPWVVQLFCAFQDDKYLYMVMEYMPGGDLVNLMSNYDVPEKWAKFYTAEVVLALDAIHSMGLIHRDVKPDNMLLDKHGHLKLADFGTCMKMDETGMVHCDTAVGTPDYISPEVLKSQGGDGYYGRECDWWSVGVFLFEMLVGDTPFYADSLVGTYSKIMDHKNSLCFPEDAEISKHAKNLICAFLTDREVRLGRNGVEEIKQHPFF

Turning to `FC(F)(F)c1ccc(CN2CCCC(Nc3ccc4[nH]ncc4c3)C2)cc1` (stereo not drawn) [Example 298, N-(1H-5-indazolyl)-N-{1-[4-(trifluoromethyl)-benzyl]-3-piperidyl}amine], in test [1], the inhibition at 0.3 µM was 15.7 ± 9.9%. Further, the inhibition in vivo at 30 mg/kg in test [2] (setting [6]) turned out to be 18.9 ± 3.1%.

For `FCCN[C@H]1CC[C@@H](Nc2cccc3cnccc23)CC1` [Example 261 (syn), N1-(2-Fluoroethyl)-N4-(5-isoquinolyl)-1,4-cyclohexanediamine], in test [1], the inhibition at 0.3 µM was found to be 24.2 ± 3.9% and the inhibition at 1 µM came to 59.4 ± 10.4%. Also, in test [2] (setting [7]), the inhibition in vivo at 30 mg/kg stood at 46.4 ± 4.8%.

As to `c1ccc(CN2CCCC(Nc3ccc4[nH]ncc4c3)C2)cc1` (stereo not drawn) [Example 21], inhibition in test [3] was half-maximal at 20 nM (IC50). Further, the inhibition in vivo at 30 mg/kg in test [2] (setting [7]) was 37 ± 2.5%.

On to `FCCNC1CCC(Nc2ccc3[nH]ncc3c2)CC1` (stereo not drawn) [Example 246, N1-(2-fluoroethyl)-N4-(1H-5-indazolyl)-1,4-cyclohexanediamine], for which the inhibition at 0.3 µM in test [1] was determined as 41.9 ± 15.4%. For the same compound, in test [4] (25 mg/liter together with drinking water for two weeks), the “Protein level of urine (mg/kg/day) SEM” value is reported as 220.2 ± 17.7 mg/kg/day.

For the compound `c1ccc(CN2CCC(Nc3ccc4[nH]ncc4c3)CC2)cc1` [Example 126, N-(1-benzyl-4-piperidyl)-N-(1H-5-indazolyl)-amine], the inhibition at 30 µM in test [1] (test compound 30 μM) was determined as 49.1 ± 4.6%. In addition, in test [2] (setting [7]), the inhibition in vivo at 30 mg/kg turned out to be 18 ± 3.5%.

Turning to `O=C(NCCF)C(c1ccccc1)N1CCCC(Nc2ccc3[nH]ncc3c2)C1` (stereo not drawn) [Example 227, N1-(2-fluoroethyl)-2-[3-(1H-5-indazolylamino)piperidino]-2-phenylacetamide], the inhibition at 3 µM in test [1] (test compound 3 μM) stood at 100.3 ± 0.5%. In addition, the inhibition in vivo at 30 mg/kg in test [2] (setting [7]) came to 22.2 ± 7.4%.

For the compound `Fc1ccc(CN2CCCC(Nc3ccc4[nH]ncc4c3)C2)cc1` (stereo not drawn) [Example 164, N-[1-(4-fluorobenzyl)-3-piperidyl]-N-(1H-5-indazolyl)amine], half-maximal inhibition in test [3] (IC50) required 16 nM. In addition, the inhibition in vivo at 30 mg/kg in test [2] (setting [7]) came out at 35 ± 4.7%.

Take `Fc1ccc(CN2CCCC(Nc3ccc4[nH]ncc4c3)C2)cc1F` (stereo not drawn) [Example 300, N-[1-(3,4-difluorobenzyl)-3-piperidyl)-N-(1H-5-indazolyl)amine]: in test [5], the “Protein level of urine (mg/kg/day) ± SEM” value was found to be 437.1 ± 95.9 mg/kg/day. For the same compound, the inhibition at 0.3 µM in test [1] is 81.9 ± 11.9%. The inhibition in vivo at 30 mg/kg in test [2] (setting [6]) was found to be 24.1 ± 3.8%. Moreover, in test [4] (oral 30 mg/kg twice daily for two weeks), the “Protein level of urine (mg/kg/day) SEM” value came to 602.2 ± 47.3 mg/kg/day.

Regarding `CCCN[C@H]1CC[C@@H](Nc2cccc3cnccc23)CC1` [Example 260 (syn)], the inhibition at 1 µM in test [1] worked out at 56.5 ± 14.9%. Further, the inhibition in vivo at 30 mg/kg in test [2] (setting [7]) amounted to 19.6 ± 10.5%.

The values above are taken from US7217722B2 (Kirin Beer Kabushiki Kaisha, priority 2000, dated 2007).
